This is an account of results in ChEMBL document CHEMBL1148105, “Bioactive metabolites from a marine-derived strain of the fungus Emericella variecolor” (2002).

Converted amounts (≈) assume the structure as drawn.

Format in all cases: functional
One test relates to Staphylococcus aureus. Kind of test: Antimicrobial activity against Staphylococcus aureus.
Another test deals with Enterococcus faecalis. The experiment in a line: Antimicrobial activity against Enterococcus faecalis.
The next test has as its system Bacillus subtilis. Kind of test: Antimicrobial activity against Bacillus subtilis.
A further test concerns Escherichia coli. Kind of test: Antimicrobial activity against Escherichia coli.
Another test relates to Proteus sp. The experiment in a line: Antimicrobial activity against Proteus sp. As to conditions: Proteus sp. (in: enterobacteria).

A word on the MIC: it is the lowest concentration found to suppress growth. High values mean a need for much substance, low ones inhibition by little substance.

For `C=C(C)[C@H]1COc2c(C)cc3oc4c(C[C@H](O)C(C)(C)O)ccc(O)c4c(=O)c3c2[C@@H]1O.O` [TAJIXANTHONE HYDRATE], the MIC against Staphylococcus aureus, in the test with Enterococcus faecalis, against Bacillus subtilis and with Escherichia coli was 50 µg/mL throughout.

Turning to `C/C=C/C1=CC(=O)[C@@H](O)[C@@H]1O` [TERREIN], the MIC against Staphylococcus aureus, with Enterococcus faecalis, in the test on Bacillus subtilis and in the test with Escherichia coli was 50 µg/mL (≈ 324 µM) each time.

Take `C=C(C)[C@H]1COc2c(C)cc3oc4c(CC=C(C)C)ccc(O)c4c(=O)c3c2[C@@H]1O` [SHAMIXANTHONE]: the MIC against Staphylococcus aureus, against Enterococcus faecalis, in the test on Bacillus subtilis and in the test on Escherichia coli was 50 µg/mL (≈ 123 µM) throughout.

For the compound `C=C(C)[C@H]1COc2c(C)cc3oc4c(C[C@H](OC=O)C(C)(C)O)ccc(O)c4c(=O)c3c2[C@@H]1O` [VARIXANTHONE], the MIC in the test on Proteus sp. turned out to be 12.5 µg/mL (≈ 26.7 µM); against Staphylococcus aureus, 12.5 µg/mL (≈ 26.7 µM); against Enterococcus faecalis it was 50 µg/mL (≈ 107 µM); against Bacillus subtilis it was 12.5 µg/mL (≈ 26.7 µM); against Escherichia coli it was 12.5 µg/mL (≈ 26.7 µM).
